The target of this experiment is S. pyogenes SKKanGAS, kanamycin survival, BacTiterGlo, 6 h. As to the kind of experiment: SKKanGAS survival reduction under kanamycin, dose response, streptokinase promoter inhibitor project, SKKanGAS strain, luminescence, dose confirmation (AID 1902).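 Also: lower survival reflects blocked streptokinase promoter driving kanamycin resistance gene.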

The structures appear in SMILES notation. “And” between values parts separate entries of the source, which are not always exact repeats. Equal entries are not always repeated. The source made the active and inactive calls.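 The calls were made as follows: active = EC50 no more than a set limit of log units above the highest dose; inactive = the rest.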

For orientation: EC50 means the concentration at which the effect is half-maximal.

In the case of `O=C(Cc1csc(Nc2nc(=S)[nH]c3ccccc23)n1)NCCCN1CCN(c2cccc(Cl)c2)CC1`, the concentration giving a half-maximal response (EC50) was 6.12 µM.

`N#Cc1c(N)nc(Sc2ccc(Cl)cc2)c(C#N)c1-c1ccccc1Cl`: the concentration giving a half-maximal response (EC50) is 6.03 µM.

Take `C/C(=N/NC(=O)CNC(=O)c1cccnc1)c1cccc([N+](=O)[O-])c1`: the EC50 was > 15 µM (inactive).

Take `CC(Oc1ccc(Cl)cc1Cl)C(=O)NC1=NN(c2ccccc2)C(=O)C1` (stereo not drawn): the EC50 is 2.92 µM.

For the compound `O=C(/C(N=Nc1cccc([N+](=O)[O-])c1)=C(/O)c1ccc(Br)cc1)C(F)(F)F`, the EC50 was 4.28 µM.

As to `O=C1NC(=Nc2ccc(Cl)cc2)SC1Cc1cccc(Cl)c1Cl` (stereo not drawn), the EC50 was 6.95 µM.

Regarding `CNC(=O)c1c(NC(=O)c2ccc(N3C(=O)CCC3=O)cc2)sc2c1CCC(C)C2` (stereo not drawn), the 50% effective concentration (EC50) was 15.7 µM.

Turning to `NC(=O)N=Nc1c2[nH]c3ccccc3nc-2c2ccccc12`, the concentration for a half-maximal effect (EC50) is 5.32 µM.

As to `Cc1cccc(NCC(=O)N/N=C\c2cccc(Oc3ccccc3)c2)c1`, the concentration for a half-maximal effect (EC50) is 11.9 µM.

`Cc1ccc(/C(O)=C/C(=O)C(=O)NC23CC4CC(CC(C4)C2)C3)cc1`: the half-maximal effective concentration (EC50) was 2.06 µM.

For the compound `O=C(Nc1ncc(Cc2ccccc2)s1)c1cccs1`, the concentration for a half-maximal effect (EC50) is 1.9 µM.

Regarding `COc1ccc(O)c(C(=O)c2cc(SCC(=O)O)c3nc4sc5c(c4c(=O)n3c2)CCCC5)c1`, the EC50 was 4.1 µM.

`CCCCn1c(O)c(N=NC(=O)c2ccccc2NS(=O)(=O)c2cccs2)c2ccccc21`: the EC50 is 5.06 µM.

For `CC(C)(C)c1ccc(OCC(O)CS(=O)(=O)c2ccccn2)cc1` (stereo not drawn), the EC50 is > 15 µM (inactive).

For the compound `CCn1cc(CN2CCC(C(=O)Nc3ccc(Oc4cccnc4)cc3)CC2)cn1`, the EC50 is > 15 µM (inactive).

As for `C[C@H]1COC2=C1C(=O)C(=O)c1c2ccc2c1CCCC2(C)C`, the EC50 was 3.95 µM.

With `CSCC[C@H](NC(=O)c1nn(C)c(=O)c2ccccc12)c1nc2ccccc2[nH]1`, the EC50 is 2.85 µM.

For `Cc1ccccc1C(=O)NNC(=S)NC(=O)c1cccs1`, the concentration giving a half-maximal response (EC50) was 2.31 µM.

For the compound `O=c1[nH]c2ccc(Cl)cc2c(-c2ccccc2)c1SC(=S)N1CCOCC1`, the concentration for a half-maximal effect (EC50) is 0.697 µM.

Regarding `CC1CCN(C(=O)N2c3ccccc3Sc3ccccc32)CC1`, the EC50 was 9.99 µM.

Consider `C=CCn1c(O)c(C(CC)=Nc2ccc(N(C)C)cc2)c(=O)[nH]c1=O`, for which the EC50 is 3.05 µM.

`Cc1ccc(NC(=S)NC2CCSc3ccccc32)cc1C` (stereo not drawn): the EC50 is 4.63 µM.

In the case of `CCc1nnc(NC(=O)c2sc3nc4cc(C)ccc4cc3c2N)s1`, the EC50 was 3.77 µM.

For `Cc1ccccc1OCC(=O)Nc1ccccc1N1CCCCC1`, the EC50 was 8.71 µM.

Consider `CCCOC(=O)c1ccc(Oc2cn[nH]c2-c2ccc(O)cc2O)cc1`, for which the EC50 was 3.34 µM.

With `CC(C)CN(Cc1cc(=O)oc2cc3c(cc12)CCCC3)CC(C)C`, the concentration for a half-maximal effect (EC50) is 7.82 µM.

With `c1ccc(N(c2ccccc2)c2nc(N3CCCC3)nc(-n3ccnc3)n2)cc1`, the EC50 was 6.12 µM.

With `NNC(=O)CSc1nc(-c2ccccc2)nc2c1CCCC2`, the EC50 was > 15 µM (inactive).

Regarding `O=C(Nc1cccc(NC(=O)c2cccnc2)c1)c1ccccc1`, the EC50 is > 15 µM (inactive).

For `COC(=O)c1cc(-c2ccc(Br)cc2)c2c(=O)[nH]c(=O)n(C)c2n1`, the EC50 is 1.22 µM.

On to `Cc1ccc(S(=O)(=O)N2CCCCC2)cc1NC(=O)CN1C(=O)CN(C)C1=O`, for which the EC50 is > 15 µM (inactive).

Consider `CC(C)Cc1csc(NC(=O)c2ccc(Br)cc2)c1C(=O)O`, for which the 50% effective concentration (EC50) was 1.57 µM.

Take `CCCCn1c(/C=N/Nc2nc3ccccc3[nH]2)nc2ccccc21`: the EC50 is 1.17 µM.

Take `Nc1nc(CN2CCC(Cc3ccccc3)CC2)nc(Nc2ccccc2)n1`: the EC50 was 1.95 µM.

For the compound `Cc1nn(-c2ccccc2)c(Cl)c1C1C(C#N)=C(N)Oc2c1c(=O)oc1ccccc21` (stereo not drawn), the EC50 was 0.112 µM.

In the case of `Cc1ccccc1-n1nc(C(=O)c2cccs2)cc(-c2nc3ccccc3[nH]2)c1=N`, the EC50 was 1.59 µM.

Consider `CN(C)c1ccnc2c[cH-]cc12.[Fe].c1ccc(-[c-]2[c-](-c3ccccc3)[c-](-c3ccccc3)[c-](-c3ccccc3)[c-]2-c2ccccc2)cc1` (stereo not drawn), for which the EC50 was 1.96 µM and 0.56 µM.

Turning to `Cc1ccc2cc(CN(Cc3cccs3)C(=O)c3ccco3)c3nnnn3c2c1C`, the EC50 is 4.71 µM.

With `S=c1[nH]nc(C2CCCCC2)n1/N=C/c1cccc(Cl)c1Cl`, the EC50 is 5.59 µM.

As to `O=C(COn1nnc2ccc(C(F)(F)F)cc21)Nc1nnc(-c2ccccc2)o1`, the EC50 is 2.51 µM.

For the compound `Cc1ccc(-c2csc3ncnc(NS(=O)(=O)c4ccc(Cl)cc4)c23)cc1`, the EC50 was 6.82 µM.

Take `O=C(NNC1=C(C(=O)C(F)(F)F)CCC1)c1ccc(Br)cc1`: the EC50 is 0.926 µM.

As to `C=CCn1c(O)c(C(C)=Nc2ccc(N(CC)CC)cc2)c(=O)[nH]c1=O`, the EC50 is 5.73 µM.

Consider `CC(C)c1ccccc1OCC(=O)NC1CCCc2ccccc21` (stereo not drawn), for which the EC50 is 11.7 µM.

Consider `COc1ccc(/C=C/C(=O)NC(=S)N2CCN(c3ccccc3OC)CC2)cc1`, for which the EC50 is > 15 µM (inactive).

`c1ccc2c(-c3c[nH]c4ccccc34)c3ccccc3nc2c1`: the EC50 was 10.9 µM.

Regarding `Cc1cccc(/C=c2\s/c(=C\C(=O)C(C)(C)C)[nH]c2=O)c1`, the 50% effective concentration (EC50) was 2.34 µM.

For `COc1cc(/C=C/C(=O)OCC(=O)c2c(N)n(C)c(=O)n(C)c2=O)ccc1OCC#N`, the EC50 is 5.45 µM.

On to `O=C(N/N=C/c1c(O)ccc2ccccc12)Nc1ccccc1`, for which the EC50 was 7.74 µM.

Regarding `Oc1ccc(/C=N/n2c3ccccc3c3ccccc32)cc1`, the EC50 was 5.79 µM.

As for `CC(=O)OCC1=C(C(=O)O)N2C(=O)C(NC(=O)C(C)Cn3cc(Cl)cn3)C2SC1` (stereo not drawn), the EC50 was 1.96 µM.

For `COc1ccccc1NC(=O)NCCCCc1ccccc1`, the EC50 is > 15 µM (inactive).

For the compound `O=C(c1ccccc1Cl)N1CCN(S(=O)(=O)c2cccs2)CC1`, the EC50 was > 15 µM (inactive).

As for `Cc1ccc(NS(=O)(=O)c2ccc(C3CCCCC3)cc2)cc1`, the EC50 was 4.32 µM.

As to `CCN(CC)C(=O)c1cc(-c2ccc(Br)cc2)on1`, the EC50 was > 15 µM (inactive).

Take `COc1ccc(NC(=O)CN(C)C(=O)/C=C/c2cn(-c3ccccc3)nc2-c2ccc(F)cc2)cc1`: the EC50 is 8.39 µM.

On to `OC(CN=c1sc2ccccc2n1CC(O)COc1ccccc1)COc1ccccc1` (stereo not drawn), for which the EC50 was 6.28 µM.

For the compound `Cc1cccc(Nc2nc(-c3ccc(F)c(C)c3)cs2)n1`, the EC50 is 8.5 µM.

For `CN1CCN(NC(=O)Nc2cc(Cl)cc(Cl)c2)CC1`, the EC50 was 3.72 µM.

As for `COc1cccc(/C=N/Nc2ccc([N+](=O)[O-])cn2)c1O`, the EC50 was 0.637 µM.

As for `Cc1ccc(C)c(NC(=O)CSc2nc3nc(-c4cccs4)cc(C(F)(F)F)c3c(=O)[nH]2)c1`, the concentration for a half-maximal effect (EC50) is 3.18 µM.

On to `Cc1noc(C)c1C(=O)Nc1nccs1`, for which the EC50 is > 15 µM (inactive).

Turning to `CCOc1ccc2c(c1)C(=NNC(=O)c1ccncc1)c1cc(OCC)ccc1-2`, the EC50 was 1.57 µM.

For `CCc1ccc(OCC(=O)NC(NC(=S)Nc2ccc(C)cc2C)C(Cl)(Cl)Cl)cc1` (stereo not drawn), the EC50 was 4.44 µM.

For the compound `COc1ccc(C(=O)O)cc1NC(=S)NC(=O)c1ccc(-c2ccc(Cl)cc2)o1`, the half-maximal effective concentration (EC50) was 2.3 µM.

Regarding `CCn1nc(-c2ccccc2)nc2c(=O)n(C)c(=O)nc1-2`, the 50% effective concentration (EC50) was 1.54 µM.

With `Cc1oc(-c2ccccc2Cl)nc1Cn1cccc1C1=NC(c2ccccc2)CO1` (stereo not drawn), the EC50 is > 15 µM (inactive).

As to `O=C(NC(=S)NNC(=O)c1ccco1)c1ccc(Br)cc1`, the concentration giving a half-maximal response (EC50) was 0.772 µM.

The record behind these values is PubChem BioAssay AID1902 (Broad Institute, 2009).
